Laboratory results from patent US12559529B2, “NPY2 receptor agonists” (Boehringer Ingelheim International GmbH, priority 2019, dated 2026).

Assays:
human NPY5 receptor = target: T1, human NPY5 receptor (Homo sapiens, UniProt Q15761); assay: HTRF cAMP Gi assay, hY5R
T1 sequence (Q15761 1-445): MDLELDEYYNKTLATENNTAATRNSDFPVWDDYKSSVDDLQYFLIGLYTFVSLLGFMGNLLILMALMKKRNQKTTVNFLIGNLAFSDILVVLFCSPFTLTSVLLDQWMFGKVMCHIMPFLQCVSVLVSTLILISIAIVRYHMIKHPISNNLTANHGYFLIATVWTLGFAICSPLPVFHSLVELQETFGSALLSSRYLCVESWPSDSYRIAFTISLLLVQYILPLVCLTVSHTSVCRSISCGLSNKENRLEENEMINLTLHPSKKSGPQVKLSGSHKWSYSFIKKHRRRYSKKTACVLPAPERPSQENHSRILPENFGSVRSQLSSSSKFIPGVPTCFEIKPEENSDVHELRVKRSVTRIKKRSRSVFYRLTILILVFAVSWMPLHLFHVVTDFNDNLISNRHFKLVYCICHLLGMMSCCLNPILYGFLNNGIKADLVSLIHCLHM

human NPY1 receptor = target: T2, human NPY1 receptor (Homo sapiens, UniProt P25929); assay: HTRF cAMP Gi assay, hY1R; format: cell-based; conditions: Table 4; CHO-K1 cells
T2 construct: expressed in transfected cells; host or cells: CHO-K1
T2 sequence (P25929 1-384): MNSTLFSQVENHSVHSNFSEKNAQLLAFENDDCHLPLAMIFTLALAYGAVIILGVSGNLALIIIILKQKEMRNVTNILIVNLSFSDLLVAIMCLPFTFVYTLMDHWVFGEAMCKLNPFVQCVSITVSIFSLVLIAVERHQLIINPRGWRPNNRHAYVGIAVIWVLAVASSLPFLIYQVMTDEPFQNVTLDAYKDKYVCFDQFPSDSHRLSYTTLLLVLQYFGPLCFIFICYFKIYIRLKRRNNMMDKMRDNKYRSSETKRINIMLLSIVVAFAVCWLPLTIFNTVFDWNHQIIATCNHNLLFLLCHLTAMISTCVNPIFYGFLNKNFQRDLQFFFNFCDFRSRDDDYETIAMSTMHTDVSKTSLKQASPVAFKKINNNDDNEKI
Experimental: Briefly, the production of intracellular cAMP will generate a competition between unlabeled cAMP and exogenously added d2-cAMP for anti-cAMP antibodies conjugated to cryptate. CHO-K1 cells stably expressing the human NPY1, NPY2, NPY4 and NPY5 receptors were used with the cells brought to life from a frozen stock immediately before assay performance. 2000 cells per well were applied for all four NPY receptor subtype assays. A 384-well format was used applying a total volume of 20 μl using 5 μl cells, 2.5 μl peptide agonist, 2.5 μl forskolin and 5 μl of each of the fluorophores. […] Concentration-response evaluation of compounds was performed with 11 concentrations of agonist peptides (covering 3 decades). EC50 values were calculated by nonlinear regression using sigmoid concentration-response with variable slope.

normal NMRI mice = assay: Effect on acute food intake in normal NMRI mice; format: in vivo; conditions: male NMRI mice, 10 nmol/kg subcutaneously once
Outline: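 Male NMRI mice acclimatized in an HM-2 real-time food intake monitoring system, fasted 6 h before dark phase. Single subcutaneous dose of 10 nmol/kg peptide given 1 h before dark; n=7-8. Food intake expressed as % of vehicle group (50 mM phosphate pH7, 5% Mannitol).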

human NPY4 receptor = target: T3, human NPY4 receptor (Homo sapiens, UniProt P50391); assay: HTRF cAMP Gi assay, hY4R; format: cell-based; conditions: Table 4; CHO-K1 cells
T3 construct: expressed in transfected cells; host or cells: CHO-K1
Text: The Homogenous Time Resolved fluorescence (HTRF) technology optimized for Gi coupled receptors has thoroughly been described in Cisbio cAMP Gi kit manual. Briefly, the production of intracellular cAMP will generate a competition between unlabeled cAMP and exogenously added d2-cAMP for anti-cAMP antibodies conjugated to cryptate. CHO-K1 cells stably expressing the human NPY1, NPY2, NPY4 and NPY5 receptors were used with the cells brought to life from a frozen stock immediately before assay performance. 2000 cells per well were applied for all four NPY receptor subtype assays. A 384-well format was used applying a total volume of 20 μl using 5 μl cells, 2.5 μl peptide agonist, 2.5 μl forskolin and 5 μl of each of the fluorophores. […] Concentration-response evaluation of compounds was performed with 11 concentrations of agonist peptides (covering 3 decades). EC50 values were calculated by nonlinear regression using sigmoid concentration-response with variable slope.

human NPY2 receptor = target: T4, human NPY2 receptor (Homo sapiens, UniProt P49146); assay: HTRF cAMP Gi assay, hY2R
T4 sequence (P49146 1-381): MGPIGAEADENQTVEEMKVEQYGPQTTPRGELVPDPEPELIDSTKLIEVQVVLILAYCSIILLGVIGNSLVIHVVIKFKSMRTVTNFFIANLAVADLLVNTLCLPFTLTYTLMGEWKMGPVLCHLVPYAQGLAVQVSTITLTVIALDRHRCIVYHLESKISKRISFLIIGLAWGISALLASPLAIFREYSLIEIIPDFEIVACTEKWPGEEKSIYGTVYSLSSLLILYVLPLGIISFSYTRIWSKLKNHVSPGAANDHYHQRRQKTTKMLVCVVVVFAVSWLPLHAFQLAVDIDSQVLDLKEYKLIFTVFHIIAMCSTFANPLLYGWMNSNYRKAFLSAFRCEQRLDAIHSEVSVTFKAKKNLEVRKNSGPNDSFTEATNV

[1] = target: T5, Human Neuropeptide Y2 Receptor (Homo sapiens, UniProt P49146); assay: Radioligand binding competition assay (RLB); conditions: Table 3; human 125I-PYY (1-36) 0.02 nM, Y2 receptor membranes; read-out: Ki
T5 construct: purchased CHEMICON HTS066M
T5 sequence (P49146 1-381): T4 sequence (P49146 1-381)
Outline: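 Peptide dilutions made in pH 7.4 HEPES assay buffer with 0.2% ovalbumin; human Y2 receptor membranes added at 0.5 μg protein/well; plates shaken 2 h at room temperature; reaction stopped by vacuum filtration onto PEI-treated GF/C filters with ice-cold high-salt washes; radioactivity counted by scintillation.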

T3 sequence (P50391 whole entry): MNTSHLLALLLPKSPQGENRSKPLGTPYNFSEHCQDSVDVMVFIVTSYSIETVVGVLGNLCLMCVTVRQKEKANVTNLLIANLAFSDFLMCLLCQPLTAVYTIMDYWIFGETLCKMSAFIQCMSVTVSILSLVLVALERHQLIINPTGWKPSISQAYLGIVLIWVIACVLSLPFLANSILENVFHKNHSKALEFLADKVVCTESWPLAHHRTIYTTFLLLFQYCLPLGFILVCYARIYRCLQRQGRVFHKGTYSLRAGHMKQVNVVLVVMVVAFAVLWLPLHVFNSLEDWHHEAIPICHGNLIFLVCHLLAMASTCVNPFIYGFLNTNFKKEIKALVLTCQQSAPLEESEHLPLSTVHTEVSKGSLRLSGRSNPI

| EC50 (human NPY5 receptor) [nM] | EC50 (human NPY1 receptor) [nM] | EC50 (human NPY4 receptor) [nM] | EC50 (human NPY2 receptor) [nM] | Ki [1] [nM] | SMILES | Acute Food Intake 24 h [% vehicle] (normal NMRI mice) |
| --- | --- | --- | --- | --- | --- | --- |
| > 5000 | > 5000 | > 5000 | 0.152 | 3.3 | CC(C)CC(=O)N[C@@H](C)C(=O)N1CCC[C@H]1C(=O)N[C@@H](CCC(=O)O)C(=O)N[C@@H](CCCCNC(=O)COCCOCCNC(=O)COCCOCCNC(=O)CC[C@H](NC(=O)CCCCCCCCCCCCCCCCC(=O)O)C(=O)O)C(=O)N1CCC[C@H]1C(=O)N[C@@H](CCC(=O)O)C(=O)N[C@@H](CCC(=O)O)C(=O)N[C@@H](CCC(=O)O)C(=O)N[C@@H](C)C(=O)N[C@@H](CO)C(=O)N1CCC[C@H]1C(=O)N[C@@H](CCC(=O)O)C(=O)N[C@@H](CCC(=O)O)C(=O)N[C@@H](CC(C)C)C(=O)N[C@@H](CCC(N)=O)C(=O)N[C@@H](CCCNC(=N)N)C(=O)N[C@@H](Cc1ccc(O)cc1)C(=O)N[C@@H](Cc1ccc(O)cc1)C(=O)N[C@H](C(=O)N[C@@H](CO)C(=O)N[C@@H](CC(C)C)C(=O)N[C@@H](CCCNC(=N)N)C(=O)N[C@@H](Cc1c[nH]cn1)C(=O)N[C@@H](Cc1ccc(O)cc1)C(=O)N[C@@H](Cc1ccc(O)cc1)C(=O)N[C@@H](CC(N)=O)C(=O)N[C@@H](Cc1c[nH]c2ccccc12)C(=O)N[C@@H](CC(C)C)C(=O)N[C@H](C(=O)N[C@@H](CCCNC(=N)N)C(=O)N[C@@H](CCC(N)=O)C(=O)N[C@@H](CCCNC(=N)N)C(=O)N[C@@H](Cc1ccc(O)cc1)C(N)=O)[C@@H](C)O)C(C)C [Compound 46, N{alpha-4}-(3-methylbutanoyl)-N{epsilon-7}-[2-(2-{2-[2-(2-{2-[(4S)-4-carboxy-4-(17-carboxyheptadecanamido)butanamido]ethoxy}ethoxy)acetamido]ethoxy}ethoxy)acetamido]-[4A,7K,9E,11E,18Q,22V,28Y,30W,31L]hPYY (4-36)] | 39 |
| > 5000 | > 5000 | > 5000 | 0.131 | 0.95 | CC(C)CC(=O)N[C@@H](C)C(=O)N1CCC[C@H]1C(=O)N[C@@H](CCC(=O)O)C(=O)N[C@@H](CCCCNC(=O)COCCOCCNC(=O)COCCOCCNC(=O)CC[C@H](NC(=O)CCCCCCCCCCCCCCCCC(=O)O)C(=O)O)C(=O)N1CCC[C@H]1C(=O)N[C@@H](CCC(=O)O)C(=O)N[C@@H](CCC(=O)O)C(=O)N[C@@H](CC(=O)O)C(=O)N[C@@H](C)C(=O)N[C@@H](CO)C(=O)N1CCC[C@H]1C(=O)N[C@@H](CCC(=O)O)C(=O)N[C@@H](CCC(=O)O)C(=O)N[C@@H](CC(C)C)C(=O)N[C@@H](CCC(N)=O)C(=O)N[C@@H](CCCNC(=N)N)C(=O)N[C@@H](Cc1ccc(O)cc1)C(=O)N[C@@H](Cc1ccc(O)cc1)C(=O)N[C@H](C(=O)N[C@@H](CO)C(=O)N[C@@H](CC(C)C)C(=O)N[C@@H](CCCNC(=N)N)C(=O)N[C@@H](Cc1c[nH]cn1)C(=O)N[C@@H](Cc1ccc(O)cc1)C(=O)N[C@@H](Cc1ccc(O)cc1)C(=O)N[C@@H](CC(N)=O)C(=O)N[C@@H](Cc1c[nH]c2ccccc12)C(=O)N[C@@H](CC(C)C)C(=O)N[C@H](C(=O)N[C@@H](CCCNC(=N)N)C(=O)N[C@@H](CCC(N)=O)C(=O)N[C@@H](CCCNC(=N)N)C(=O)N[C@@H](Cc1ccc(O)cc1)C(N)=O)[C@@H](C)O)C(C)C [Compound 54, N{alpha-4}-(3-methylbutanoyl)-N{epsilon-7}-[2-(2-{2-[2-(2-{2-[(4S)-4-carboxy-4-(17-carboxyheptadecanamido)butanamido]ethoxy}ethoxy)acetamido]ethoxy}ethoxy)acetamido]-[4A,7K,9E,18Q,22V,28Y,30W,31L]hPYY (4-36)] | 42 |
| > 5000 | > 5000 | > 5000 | 0.284 | 6.94 | CC(C)CC(=O)N[C@@H](C)C(=O)N1CCC[C@H]1C(=O)N[C@@H](CCC(=O)O)C(=O)N[C@@H](CCCCNC(=O)COCCOCCNC(=O)COCCOCCNC(=O)CC[C@H](NC(=O)CCCCCCCCCCCCCCCCC(=O)O)C(=O)O)C(=O)N1CCC[C@H]1C(=O)N[C@@H](CCC(=O)O)C(=O)N[C@@H](CCC(=O)O)C(=O)N[C@@H](CC(=O)O)C(=O)N[C@@H](C)C(=O)N[C@@H](CCC(=O)O)C(=O)N1CCC[C@H]1C(=O)N[C@@H](CCC(=O)O)C(=O)N[C@@H](CCC(=O)O)C(=O)N[C@@H](CC(C)C)C(=O)N[C@@H](CCC(N)=O)C(=O)N[C@@H](CCC(=O)O)C(=O)N[C@@H](Cc1ccc(O)cc1)C(=O)N[C@@H](Cc1ccc(O)cc1)C(=O)N[C@H](C(=O)N[C@@H](CO)C(=O)N[C@@H](CC(C)C)C(=O)N[C@@H](CCCNC(=N)N)C(=O)N[C@@H](Cc1c[nH]cn1)C(=O)N[C@@H](Cc1ccc(O)cc1)C(=O)N[C@@H](Cc1ccc(O)cc1)C(=O)N[C@@H](CC(N)=O)C(=O)N[C@@H](Cc1c[nH]c2ccccc12)C(=O)N[C@@H](CC(C)C)C(=O)N[C@H](C(=O)N[C@@H](CCCNC(=N)N)C(=O)N[C@@H](CCC(N)=O)C(=O)N[C@@H](CCCNC(=N)N)C(=O)N[C@@H](Cc1ccc(O)cc1)C(N)=O)[C@@H](C)O)C(C)C [Compound 105, N{alpha-4}-(3-methylbutanoyl)-N{epsilon-7}-[2-(2-{2-[2-(2-{2-[(4S)-4-carboxy-4-(17-carboxyheptadecanamido)butanamido]ethoxy}ethoxy)acetamido]ethoxy}ethoxy)acetamido]-[4A,7K,9E,13E,18Q,19E,22V,28Y,30W,31L]hPYY (4-36)] | 72 |
| > 5000 | > 5000 | > 5000 | 0.235 | 4.33 | CC(C)CC(=O)N[C@@H](C)C(=O)N1CCC[C@H]1C(=O)N[C@@H](CCC(=O)O)C(=O)N[C@@H](CCCCNC(=O)COCCOCCNC(=O)COCCOCCNC(=O)CC[C@H](NC(=O)CCCCCCCCCCCCCCCCC(=O)O)C(=O)O)C(=O)N1CCC[C@H]1C(=O)N[C@@H](CCC(=O)O)C(=O)N[C@@H](CCC(=O)O)C(=O)N[C@@H](CC(=O)O)C(=O)N[C@@H](C)C(=O)N[C@@H](CO)C(=O)N[C@@H](CCC(=O)O)C(=O)N[C@@H](CCC(=O)O)C(=O)N[C@@H](CCC(=O)O)C(=O)N[C@@H](CC(C)C)C(=O)N[C@@H](CCC(N)=O)C(=O)N[C@@H](CCC(=O)O)C(=O)N[C@@H](Cc1ccc(O)cc1)C(=O)N[C@@H](Cc1ccc(O)cc1)C(=O)N[C@H](C(=O)N[C@@H](CO)C(=O)N[C@@H](CC(C)C)C(=O)N[C@@H](CCCNC(=N)N)C(=O)N[C@@H](Cc1c[nH]cn1)C(=O)N[C@@H](Cc1ccc(O)cc1)C(=O)N[C@@H](Cc1ccc(O)cc1)C(=O)N[C@@H](CC(N)=O)C(=O)N[C@@H](Cc1c[nH]c2ccccc12)C(=O)N[C@@H](CC(C)C)C(=O)N[C@H](C(=O)N[C@@H](CCCNC(=N)N)C(=O)N[C@@H](CCC(N)=O)C(=O)N[C@@H](CCCNC(=N)N)C(=O)N[C@@H](Cc1ccc(O)cc1)C(N)=O)[C@@H](C)O)C(C)C [Compound 164, N{alpha-4}-(3-methylbutanoyl)-N{epsilon-7}-[2-(2-{2-[2-(2-{2-[(4S)-4-carboxy-4-(17-carboxyheptadecanamido)butanamido]ethoxy}ethoxy)acetamido]ethoxy}ethoxy)acetamido]-[4A,7K,9E,14E,18Q,19E,22V,28Y,30W,31L]hPYY (4-36)] | 64 |
